Experiment [1] deals with P2Y1 receptor (Homo sapiens, UniProt P47900). Put plainly: Frontal affinity chromatography, competitive displacement on CMAC. Type of experiment: binding. Particulars: CMAC(1321N1P2Y1); marker 1 nM [3H]-2-MeSADP; 1 μM mepyramine in mobile phase.
In experiment [2] the target is T1, histamine 1 receptor (H1R) (Homo sapiens, UniProt P35367). Type of experiment: binding. To be noted: histamine subtype selectivity; data not shown.
The target of experiment [3] is T1, histamine 1 receptor (H1R). To be noted: cellular membrane binding studies; data not shown.
Experiment [4] concerns the target T1, histamine 1 receptor (H1R). Briefly: Frontal affinity chromatography, competitive displacement on CMAC. The class given is binding. To be noted: CMAC(1321N1P2Y1); marker 50 pM [3H]-mepyramine; 10 μM 2-MeSADP in mobile phase.
Experiment [5] has as its system P2Y1 receptor. Put plainly: Frontal affinity chromatography on CMAC. The class given is binding, human.

T1 sequence (P35367 whole entry): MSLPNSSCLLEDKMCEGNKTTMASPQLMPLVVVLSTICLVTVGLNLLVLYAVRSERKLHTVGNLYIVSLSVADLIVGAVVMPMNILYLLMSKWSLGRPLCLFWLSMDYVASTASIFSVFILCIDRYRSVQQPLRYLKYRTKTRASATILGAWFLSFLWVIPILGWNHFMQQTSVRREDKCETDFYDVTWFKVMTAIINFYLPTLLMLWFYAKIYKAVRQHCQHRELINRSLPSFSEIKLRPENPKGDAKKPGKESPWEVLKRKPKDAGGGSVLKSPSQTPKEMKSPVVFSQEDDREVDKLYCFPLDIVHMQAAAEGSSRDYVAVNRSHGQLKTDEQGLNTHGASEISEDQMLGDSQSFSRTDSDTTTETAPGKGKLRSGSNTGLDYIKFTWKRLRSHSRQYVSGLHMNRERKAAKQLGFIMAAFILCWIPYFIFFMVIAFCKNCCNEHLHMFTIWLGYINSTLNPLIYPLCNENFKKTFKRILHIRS
Chain of P2Y1 receptor (Homo sapiens, UniProt P47900) (P47900 whole entry): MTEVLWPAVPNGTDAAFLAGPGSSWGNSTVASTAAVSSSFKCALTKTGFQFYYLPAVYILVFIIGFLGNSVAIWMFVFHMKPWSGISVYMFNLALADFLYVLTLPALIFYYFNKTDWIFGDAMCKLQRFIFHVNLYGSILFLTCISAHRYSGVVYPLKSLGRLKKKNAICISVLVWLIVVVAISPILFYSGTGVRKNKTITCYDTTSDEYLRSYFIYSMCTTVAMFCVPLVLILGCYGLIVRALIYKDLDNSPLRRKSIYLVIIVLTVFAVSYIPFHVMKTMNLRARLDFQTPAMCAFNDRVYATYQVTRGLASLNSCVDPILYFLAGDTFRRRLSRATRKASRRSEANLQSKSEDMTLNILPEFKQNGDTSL

On to `COc1ccc(CN(CCN(C)C)c2ccccn2)cc1` [Mepyramine, mepyramine], for which the “effect on the breakthrough volume of 2-MeSADP” value at P2Y1 receptor [1] was “no effect”.

For 4-methylhistamine, the “specific retention on CMAC(1321N1) column” value in experiment [2] is “No specific retention”. Moreover, in experiment [3], the “specific binding to 1321N1 cellular membranes” value was “did not specifically bind”.

`CSc1nc(N)c2ncn([C@@H]3O[C@H](COP(=O)(O)OP(=O)(O)O)[C@@H](O)[C@H]3O)c2n1` [2-MeSADP]: in experiment [4], the “effect on the breakthrough volume of mepyramine” value is “no effect”. In addition, in the experiment on P2Y1 receptor [5] (P2Y1, non-transfected 1321N1 membranes), the “CMAC(1321N1) Kd” value is reported as “No binding”. The “specific retention on CMAC(1321N1) column” value in the experiment with P2Y1 receptor [5] ([3H]-2-MeSADP added to the mobile phase) is on record as “no specific retention”.

The values above are taken from article PMC4605401 (Journal of pharmaceutical and biomedical analysis, 2009).
